Several values for one entry are separate records, joined by “and”; a condition that tells them apart may be missing. Equal entries are not always repeated. ± gives the expanded uncertainty stated by the source.
Conditions: Crystal, Calculated from knudsen effusion weight loss

[Cl][Ga]([Cl])[Cl] [gallium chloride]
Conditions	vapor or sublimation pressure
289 K	0.004266 ± 0.00052 kPa
290.5 K	0.005754 ± 0.00073 kPa
292 K	0.006166 ± 0.00078 kPa
293 K	0.006761 ± 0.00087 kPa and 0.006918 ± 0.00089 kPa
293.5 K	0.007413 ± 0.00096 kPa
294 K	0.007943 ± 0.001 kPa
295.5 K	0.00912 ± 0.0012 kPa
296 K	0.008913 ± 0.0012 kPa
297 K	0.01148 ± 0.0015 kPa and 0.01072 ± 0.0014 kPa and 0.01047 ± 0.0014 kPa
298 K	0.01175 ± 0.0016 kPa
298.5 K	0.01175 ± 0.0016 kPa
299 K	0.01318 ± 0.0018 kPa
299.5 K	0.01349 ± 0.0018 kPa
300.5 K	0.01413 ± 0.0019 kPa and 0.0138 ± 0.0019 kPa
301 K	0.0166 ± 0.0023 kPa
302 K	0.01698 ± 0.0024 kPa
303 K	0.01905 ± 0.0027 kPa and 0.0182 ± 0.0026 kPa
303.5 K	0.02089 ± 0.003 kPa
304.5 K	0.02042 ± 0.0029 kPa
305 K	0.02344 ± 0.0034 kPa and 0.02089 ± 0.003 kPa
306 K	0.02512 ± 0.0036 kPa and 0.02754 ± 0.004 kPa
307 K	0.02884 ± 0.0042 kPa and 0.0263 ± 0.0038 kPa
308 K	0.0309 ± 0.0045 kPa and 0.02951 ± 0.0043 kPa and 0.02818 ± 0.0041 kPa

[F][Ga]([F])[F] [gallium fluoride (GaF3)]
Conditions	vapor or sublimation pressure
808 K	4.677e-05 ± 4.1e-06 kPa
810 K	3.981e-05 ± 3.5e-06 kPa
813 K	4.677e-05 ± 4.1e-06 kPa
816 K	4.677e-05 ± 4.1e-06 kPa
818 K	6.31e-05 ± 5.5e-06 kPa
820 K	5.495e-05 ± 4.8e-06 kPa
822 K	6.31e-05 ± 5.5e-06 kPa
827 K	9.55e-05 ± 8.4e-06 kPa and 7.943e-05 ± 7e-06 kPa
830 K	9.55e-05 ± 8.4e-06 kPa
835 K	0.0001096 ± 9.6e-06 kPa
836 K	0.0001413 ± 1.2e-05 kPa
837 K	0.0001096 ± 9.6e-06 kPa
839 K	0.0001259 ± 1.1e-05 kPa
842 K	0.0002239 ± 2e-05 kPa
843 K	0.0001413 ± 1.2e-05 kPa
844 K	0.000257 ± 2.3e-05 kPa
845 K	0.0001905 ± 1.7e-05 kPa and 0.0002818 ± 2.5e-05 kPa
846 K	0.000166 ± 1.5e-05 kPa
847 K	0.0001738 ± 1.5e-05 kPa and 0.000257 ± 2.3e-05 kPa
852 K	0.0002692 ± 2.4e-05 kPa
853 K	0.0002188 ± 1.9e-05 kPa and 0.0003715 ± 3.2e-05 kPa
854 K	0.0004074 ± 3.6e-05 kPa
855 K	0.0002344 ± 2.1e-05 kPa and 0.0004677 ± 4.1e-05 kPa
856 K	0.0002512 ± 2.2e-05 kPa
857 K	0.0003715 ± 3.3e-05 kPa
859 K	0.0006026 ± 5.3e-05 kPa
861 K	0.0003802 ± 3.3e-05 kPa
862 K	0.0003162 ± 2.8e-05 kPa
863 K	0.0005888 ± 5.1e-05 kPa and 0.0005495 ± 4.8e-05 kPa
864 K	0.0003311 ± 2.9e-05 kPa
866 K	0.0005495 ± 4.8e-05 kPa
867 K	0.0003802 ± 3.3e-05 kPa
869 K	0.0005248 ± 4.6e-05 kPa
870 K	0.0008913 ± 7.8e-05 kPa
871 K	0.0004365 ± 3.8e-05 kPa and 0.0008128 ± 7.1e-05 kPa
872 K	0.0004571 ± 4e-05 kPa and 0.0008128 ± 7.1e-05 kPa
874 K	0.0007413 ± 6.5e-05 kPa
876 K	0.000537 ± 4.7e-05 kPa
878 K	0.0007586 ± 6.6e-05 kPa
880 K	0.0006166 ± 5.4e-05 kPa and 0.001096 ± 0.00012 kPa
881 K	0.001349 ± 0.00015 kPa
882 K	0.0006457 ± 5.6e-05 kPa
884 K	0.0009772 ± 8.6e-05 kPa and 0.001259 ± 0.00014 kPa
885 K	0.0007943 ± 7e-05 kPa and 0.001175 ± 0.00013 kPa
890 K	0.0008511 ± 7.4e-05 kPa and 0.000871 ± 7.6e-05 kPa and 0.001585 ± 0.00018 kPa
893 K	0.001413 ± 0.00016 kPa and 0.002089 ± 0.00024 kPa
894 K	0.001202 ± 0.00013 kPa and 0.001862 ± 0.00021 kPa and 0.001622 ± 0.00018 kPa
895 K	0.001096 ± 0.00012 kPa
898 K	0.002138 ± 0.00025 kPa
900 K	0.001349 ± 0.00015 kPa
901 K	0.001862 ± 0.00021 kPa and 0.002042 ± 0.00023 kPa
902 K	0.002399 ± 0.00028 kPa
903 K	0.00166 ± 0.00019 kPa and 0.002884 ± 0.00034 kPa
904 K	0.001622 ± 0.00018 kPa
907 K	0.002818 ± 0.00033 kPa
909 K	0.002455 ± 0.00029 kPa and 0.001778 ± 0.0002 kPa
910 K	0.00389 ± 0.00047 kPa and 0.002818 ± 0.00033 kPa
911 K	0.002138 ± 0.00025 kPa
913 K	0.002188 ± 0.00025 kPa and 0.003467 ± 0.00042 kPa
916 K	0.002455 ± 0.00029 kPa and 0.003802 ± 0.00046 kPa
918 K	0.00309 ± 0.00037 kPa
919 K	0.00389 ± 0.00047 kPa
920 K	0.00537 ± 0.00067 kPa
921 K	0.002884 ± 0.00034 kPa
923 K	0.003236 ± 0.00039 kPa
924 K	0.005012 ± 0.00063 kPa
925 K	0.005248 ± 0.00066 kPa
928 K	0.007079 ± 0.00091 kPa
929 K	0.005495 ± 0.00069 kPa
934 K	0.007413 ± 0.00096 kPa
935 K	0.007244 ± 0.00093 kPa
938 K	0.00955 ± 0.0013 kPa
939 K	0.007413 ± 0.00096 kPa
942 K	0.00955 ± 0.0013 kPa
945 K	0.01023 ± 0.0014 kPa
946 K	0.009333 ± 0.0012 kPa
947 K	0.01288 ± 0.0018 kPa
948 K	0.01175 ± 0.0016 kPa
955 K	0.01445 ± 0.002 kPa
956 K	0.01413 ± 0.0019 kPa
958 K	0.01698 ± 0.0024 kPa and 0.01318 ± 0.0018 kPa

[I][Ga]([I])[I] [gallium iodide]
Conditions	vapor or sublimation pressure
344.5 K	0.0001445 ± 1.3e-05 kPa
346 K	0.0001698 ± 1.5e-05 kPa and 0.0001445 ± 1.3e-05 kPa
347 K	0.000195 ± 1.7e-05 kPa
348 K	0.000195 ± 1.7e-05 kPa
348.5 K	0.0001445 ± 1.3e-05 kPa
349 K	0.000195 ± 1.7e-05 kPa
349.5 K	0.0002455 ± 2.2e-05 kPa and 0.0002951 ± 2.6e-05 kPa
350 K	0.000195 ± 1.7e-05 kPa
351.5 K	0.0003388 ± 3e-05 kPa
352 K	0.0002455 ± 2.2e-05 kPa
352.5 K	0.0003388 ± 3e-05 kPa
354 K	0.0004365 ± 3.8e-05 kPa and 0.0003388 ± 3e-05 kPa
355 K	0.0003388 ± 3e-05 kPa and 0.000389 ± 3.4e-05 kPa
356 K	0.0004365 ± 3.8e-05 kPa
357 K	0.0004365 ± 3.8e-05 kPa
357.5 K	0.0006761 ± 5.9e-05 kPa and 0.0004898 ± 4.3e-05 kPa
359.5 K	0.000537 ± 4.7e-05 kPa
361.5 K	0.0006761 ± 5.9e-05 kPa
362 K	0.000871 ± 7.6e-05 kPa
364 K	0.0009333 ± 8.2e-05 kPa and 0.0007762 ± 6.8e-05 kPa
365.5 K	0.0009772 ± 8.6e-05 kPa
367 K	0.001148 ± 0.00012 kPa
367.5 K	0.00123 ± 0.00013 kPa
368.5 K	0.001122 ± 0.00012 kPa and 0.00123 ± 0.00013 kPa
370 K	0.001413 ± 0.00016 kPa
372 K	0.001445 ± 0.00016 kPa and 0.00166 ± 0.00019 kPa
372.5 K	0.00166 ± 0.00019 kPa
373 K	0.001905 ± 0.00022 kPa and 0.001738 ± 0.0002 kPa
374.5 K	0.002042 ± 0.00023 kPa and 0.001995 ± 0.00023 kPa
375.5 K	0.002291 ± 0.00026 kPa
377 K	0.002399 ± 0.00028 kPa
377.5 K	0.002692 ± 0.00032 kPa
378 K	0.002951 ± 0.00035 kPa
379 K	0.002951 ± 0.00035 kPa
380 K	0.002951 ± 0.00035 kPa
381.5 K	0.003715 ± 0.00045 kPa
382 K	0.004266 ± 0.00052 kPa
383 K	0.00389 ± 0.00047 kPa
383.5 K	0.004169 ± 0.00051 kPa
384 K	0.004898 ± 0.00061 kPa
387.5 K	0.006607 ± 0.00085 kPa and 0.006026 ± 0.00076 kPa and 0.00631 ± 0.0008 kPa
389.5 K	0.007244 ± 0.00093 kPa
390.5 K	0.00871 ± 0.0011 kPa and 0.007244 ± 0.00093 kPa
391.5 K	0.00871 ± 0.0011 kPa
393.5 K	0.01096 ± 0.0015 kPa and 0.01 ± 0.0013 kPa
394 K	0.009772 ± 0.0013 kPa
397 K	0.0138 ± 0.0019 kPa
398 K	0.01349 ± 0.0018 kPa
400.5 K	0.01778 ± 0.0025 kPa
401 K	0.01698 ± 0.0024 kPa

— the NIST ThermoML archive (doi:10.1021/je900276q)
